Experimental findings from patent US9150530B2, “Esters of 4, 9-dihydroxy-naphtho [2, 3-b] furans for disease therapies” (Zhoushan Haizhongzhou Xinsheng Pharmaceuticals Co., Ltd., priority 2011, dated 2015) are described below.

A value given as a limit tells only on which side of the number the result lay.

For one data set, the system named is A549. Briefly: Cell viability determination (MTT), A549. It is filed as cell-based. Particulars: Homo sapiens, A549, lung cancer, 48 hour incubation, read-out: Drug concentrations for 50% cell viability (IC50). The text has this: (§1) Cell Culture: A549, DLD1, SW480, LOVO, HT-29, Hela, U-20S, MES-SA, SK-MEL-28, Panc-1, DU-145, CNE, U251, Eca-109, MGC80-3, QGY-7701, BEL-7404, PLC/PRF/5, Huh-7, and SGC-7901 cells were maintained in Dulbecco's Modified Eagle Medium (DMEM) (imported from Invitrogen, Carlsbad, Calif., USA) supplemented with 10% fetal bovine serum (FBS) (Si Ji Qing, Hangzhou, China) and 1% penicillin/streptomycin/amphotericin B (imported from Invitrogen, Carlsbad, Calif., USA).
(§2) Cell Viability Determination: Popular MTT method (Archives of Biochemistry and Biophysics, 1993, 303: 474-482) was used to screen the in vitro effects of the invented drugs. Briefly, 5000 to 10000 cells were inoculated per well in a 96-well plate. After overnight incubation, drug was added to the wells at final concentration of 10 μM, […], 2.5 μM, 1.25 μM, or 1 μM, 0.75 μM, 0.5 μM and 0.25 μM in complete culture medium. Each dose level covered 4 equivalent wells. After 48 hour incubation, one tenth volume of 5 mg/mL MTT (thiazolyl blue tetrazolium bromide, Sigma-Aldrich) stock solution was added, and incubation was continued for 2 hours. Then medium was removed and 100 μL of isopropanol solution comprising 86% isopropanol, 4% aqueous 1 N HCl and 10% aqueous SDS solution (10% in concentration) was added. The absorbance of each well at 570 nm wavelength was measured by a micro-plate reader after gentle shaking for 20 minutes. Drug concentrations of 50% cell viability (IC50) were calculated by LOGIT method.

A further data set deals with DLD1. The data set can be described thus: Cell viability determination (MTT), DLD1. It is filed as cell-based. Particulars: Homo sapiens, DLD-1, DLD1, colorectal cancer, 48 hour incubation, read-out: Drug concentrations for 50% cell viability (IC50).
Description: as §1, §2

The subject of another data set is SW480. Briefly: Cell viability determination (MTT), SW480. In kind it is cell-based. Particulars: Homo sapiens, SW480, colorectal cancer, 48 hour incubation, read-out: Drug concentrations for 50% cell viability (IC50).
Description: as §1, §2

The next data set concerns LOVO. Briefly: Cell viability determination (MTT), LOVO. It is filed as cell-based. Particulars: Homo sapiens, colorectal cancer, 48 hour incubation, read-out: Drug concentrations for 50% cell viability (IC50).
Description: as §1, §2

A further data set has as its system Hela. Briefly: Cell viability determination (MTT), Hela. It is filed as cell-based. Particulars: Homo sapiens, cervical cancer, 48 hour incubation, read-out: Drug concentrations for 50% cell viability (IC50).
Description: as §1, §2

For the next data set, the system named is U-20S. The data set can be described thus: Cell viability determination (MTT), U-20S. In kind it is cell-based. Particulars: osteosarcoma, 48 hour incubation, read-out: Drug concentrations for 50% cell viability (IC50).
Description: as §1, §2

The test system of a further data set is MES-SA. Briefly: Cell viability determination (MTT), MES-SA. It is filed as cell-based. Particulars: Homo sapiens, leiomyosarcoma, 48 hour incubation, read-out: Drug concentrations for 50% cell viability (IC50).
Description: as §1, §2

For the next data set, the system named is Panc-1. The data set can be described thus: Cell viability determination (MTT), Panc-1. In kind it is cell-based. Particulars: Homo sapiens, Panc-1, pancreatic cancer, 48 hour incubation, read-out: Drug concentrations for 50% cell viability (IC50).
Description: as §1, §2

The next data set relates to DU-145. The data set can be described thus: Cell viability determination (MTT), DU-145. In kind it is cell-based. Particulars: Homo sapiens, DU-145, prostate cancer, 48 hour incubation, read-out: Drug concentrations for 50% cell viability (IC50).
Description: as §1, §2

A further data set concerns CNE. The data set can be described thus: Cell viability determination (MTT), CNE. In kind it is cell-based. Particulars: Homo sapiens, nasopharyngeal cancer, 48 hour incubation, read-out: Drug concentrations for 50% cell viability (IC50).
Description: as §1, §2

The test system of the next data set is U251. The data set can be described thus: Cell viability determination (MTT), U251. In kind it is cell-based. Particulars: Homo sapiens, U-251, U251, glioma, 48 hour incubation, read-out: Drug concentrations for 50% cell viability (IC50).
Description: as §1, §2

In a further data set the test system is Eca-109. The data set can be described thus: Cell viability determination (MTT), Eca-109. In kind it is cell-based. Particulars: Homo sapiens, Eca-109, esophageal cancer, 48 hour incubation, read-out: Drug concentrations for 50% cell viability (IC50).
Description: as §1, §2

In another data set the test system is MGC80-3. The data set can be described thus: Cell viability determination (MTT), MGC80-3. It is filed as cell-based. Particulars: Homo sapiens, MGC-803, MGC80-3, stomach cancer, 48 hour incubation, read-out: Drug concentrations for 50% cell viability (IC50).
Description: as §1, §2

The subject of the next data set is QGY-7701. Briefly: Cell viability determination (MTT), QGY-7701. In kind it is cell-based. Particulars: QGY7701, QGY-7701, liver cancer, 48 hour incubation, read-out: Drug concentrations for 50% cell viability (IC50).
Description: as §1, §2

Data set [1] can be described thus: Human plasma incubation, HPLC analysis of degradation products. In kind it is in vitro ADME. Particulars: 20 μM in human plasma, 37° C., 2 hours. The method, then: The compounds of formula I were incubated in human plasma at 37° C. for 2 hours, and then the mixtures were treated with acetonitrile to remove protein and the resulting supernatants were analyzed by HPLC (FIG. 2). […] Without wishing to be bound by a particular theory, it is believed that, although not detected due to instability in a protein-free environment, the direct hydrolysis product of a compound of formula I, 4,9-dihydroxy-naphtho[2,3-b]furan, and its partially oxidized product semihydroquinone (shown in scheme 6) co-exist in vivo and play important biological roles.
HPLC column: Waters Sunfire C18, 250×4.60 mm 5 micron; Mobile phase: buffer A, 90% 5 mM potassium phosphate buffer, pH 6.8, 10% acetonitrile; buffer B, 15% 5 mM potassium phosphate buffer, pH 6.8, 85% acetonitrile; Detector: Waters 2998 Photodiode Array Detector.
Gradient B: 0-3 min, 50% buffer B, 3-5 min, 50%-100% buffer B, 5-18 min, 100% buffer B, 18-22 min, 100%-50% buffer B, 22-25 min, […]; flow rate, 1 ml/min. Analysis of the 4,9-dihydroxy-naphtho[2,3-b]furan compounds (FIG. 1)
10 mM of a compound of formula I or its analog in DMSO (however, compound VI was in DMF) was diluted with human plasma to 20 μM, and the resulting mixtures were incubated at 37° C. for 2 hours. To plasma sample, 9 times volume of acetonitrile was added. The resulting mixtures were vortexed and incubated in dry ice for 30 minutes or in −20° C. freezer for 3 hours, then centrifuged, and supernatant was used for HPLC analysis using gradient B.

Data set [2] in a line: Metabolism in biological fluid (human whole blood, cancer cell lysate, liver microsomes, mouse oral uptake), HPLC. In kind it is in vitro ADME. Particulars: liver microsomes or mouse oral uptake system, 20 μM, 37° C. Here is the method:
Second, a major metabolite found after incubation of compound I, III, IV, VI or XIII in biological fluid, such as human whole blood, or cancer cell lysate, or liver microsomes, or mouse oral uptake system, is compound XII (FIG. 3). Similarly, a major metabolite found after incubation of compound V, VII or XIV in biological fluid is 2-(1-hydroxy-n-propyl)-naphtho[2,3-b]furan-4,9-dione (data not shown). Reduction of the position 2 substituent carbonyl group is part of quinone redox reaction as evidenced by the β-lapachone effect on the formation of compound XII in the compound XIII incubation mixture of human whole blood (part D of FIG. 3). The possible reaction mechanism is proposed as shown in scheme 7, in which the two electron reduction could be NQ01 catalyzed reduction or two successive cytochrome b5 reductase or p450 reductase catalyzed reaction. As substrate of these enzymes, β-lapachone could compete for the two electron or single electron reaction and thus reduced formation of the metabolism product.
Crystalline or amorphous solid of compound was mixed with excipient and suspended in 0.5% carboxymethylcellulose (CMC) solution in a mortar. Then the mixture was orally administered into ICR mouse at the predetermined dosage. At the predetermined time point, blood was drawn from the mouse and stored in the vial containing heparin. The blood samples were centrifuged at 6,000 rpm for 10 min, and plasmas were separated. To each plasma sample, 9 times volume of acetonitrile/methyl trifluoromethanesulfonate (1000:1) or acetonitrile/concentrated HCl (1000:1) was added. The resulting mixtures were vortexed and incubated in dry ice for 30 minutes or in −20° C. freezer for 3 hours, then centrifuged, and supernatants were separated for HPLC analysis using gradient B.
The biological systems for in vitro metabolism study include: human whole blood stabilized with sodium citrate; cancer cell lysate (obtained using freeze-thaw method, 10 mg/ml in protein concentration for use); liver microsomes with NADPH generation system (prepared according to the protocol provided by iPhase Pharma, Beijing, China);
10 mM of a compound of formula I or its analog or compound XIII in DMSO (however, compound VI was in DMF) was added into the biological system to a final concentration of 20 μM. The mixtures were incubated at 37° C. for predetermined time. To each sample, then 9 times volume of acetonitrile was added. The resulting mixtures were vortexed and incubated in dry ice for 30 minutes or in −20° C. freezer for 3 hours, then centrifuged, and supernatants were separated for HPLC analysis using gradient B.
(Liver microsomes are a subcellular fraction often used to study metabolism.)

Another data set has as its system SK-MEL-28. The data set can be described thus: Cell viability determination (MTT), SK-MEL-28. In kind it is cell-based. Particulars: Homo sapiens, SK-MEL-28, malignant melanoma, 48 hour incubation, read-out: Drug concentrations for 50% cell viability (IC50).
Description: as §1, §2

As to `CC(=O)c1cc2c(OC(=O)C(C)C)c3ccccc3c(OC(=O)C(C)C)c2o1` [compound I], the IC50 in the data set with A549 was less than 2.5 µM; with DLD1, less than 2.5 µM; with SW480, less than 2.5 µM; in the data set on LOVO, 2.8 µM; in the data set with Hela, less than 2.5 µM; in the data set on U-20S, 5.7 µM. In addition, the IC50 in the data set with MES-SA is less than 2.5 µM; with Panc-1, less than 2.5 µM; in the data set with DU-145, less than 2.5 µM; in the data set on CNE, 2.5 µM; in the data set with U251 it was less than 2.5 µM; with Eca-109, 5.5 µM. Besides, the results for the IC50 with MGC80-3 and in the data set with QGY-7701 were 2.5 µM and 2.87 µM, respectively. In addition, in data set [1], the “Degradation / detectable products after incubation in human plasma” value is “the detectable products were compound XIII and partially degraded products”. In data set [2], the “Major metabolite found after incubation in biological fluid” value is “compound XII”.
For `CC(=O)c1cc2c(O)c3ccccc3c(OC(=O)CNC(=O)OC(C)(C)C)c2o1` [compound III, 2-acetyl-4-hydroxy-9-[(tert-butoxycarbonyl)amino]acetoxy-naphtho[2,3-b]furan], the IC50 with A549 was 1.25 to 2.5 µM; in the data set on DLD1, 1.03 µM; with SW480, 1.55 µM; in the data set with LOVO, 3.1 µM; with Hela it was 1.25 to 2.5 µM; in the data set with U-20S it was 2.5 to 5 µM. The IC50 with MES-SA is 0.47 µM; in the data set with SK-MEL-28 it was 0.89 µM; in the data set with Panc-1, 1.77 µM; in the data set with DU-145, 1.25 to 2.5 µM; in the data set on CNE, 1.87 µM; in the data set on U251 it was 2.07 µM. Besides, the IC50 is 2.55 µM in the data set on Eca-109, 1.65 µM in the data set with MGC80-3 and 4.8 µM in the data set on QGY-7701. Besides, the “Major metabolite found after incubation in biological fluid” value in [2] is “compound XII”.
With `CC(=O)c1cc2c(OC(=O)C(C)(C)C)c3ccccc3c(OC(=O)C(C)(C)C)c2o1` [compound II, 2-acetyl-4,9-Bis(pivaloxy)-naphtho[2,3-b]furan], the IC50 with DLD1 is more than 4 µM; with SW480, more than 4 µM; in the data set with LOVO it was more than 4 µM; in the data set with Panc-1, 3 µM; with Eca-109, more than 4 µM. The “Degradation / detectable products after incubation in human plasma” value in [1] is on record as “barely degraded”.
For the molecule `CC(=O)c1cc2c(OC(=O)C(Cl)Cl)c3ccccc3c(OC(=O)C(Cl)Cl)c2o1` [compound VI, 2-acetyl-4,9-Bis(dichloroacetoxy)-naphtho[2,3-b]furan], the IC50 in the data set with A549 is 0.4 µM; in the data set with DLD1, 0.9 µM; with SW480, 0.6 µM; in the data set with LOVO it was 1.5 µM; in the data set on Hela, 0.4 µM; in the data set on U-20S, 0.8 µM. Besides, the IC50 was 0.27 µM in the data set on MES-SA; 1 µM with Panc-1; 1 µM in the data set on DU-145; 1.1 µM in the data set on CNE; 0.7 µM in the data set with U251; 0.8 µM in the data set on Eca-109. In addition, the IC50 in the data set with MGC80-3 is 0.6 µM. In addition, in data set [2], the “Major metabolite found after incubation in biological fluid” value is “compound XII”.
